In patent US10307413B2, “Tetrahydro- and dihydro-isoquinoline PRMT5 inhibitors and uses thereof” (Epizyme, Inc., priority 2013, dated 2019):
Like-named read-outs stand apart in the source and are kept apart here.

Legend:
Z-138 cell line = test: Z-138 Proliferation Assay (Cell Titer Glo, 5 days); format: cell-based; conditions: Homo sapiens, 120 h, Z-138 cells, 5 days, read-out: Proliferation EC50
Outline: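 Z-138 cells exposed 5 days at 37 °C, 5% CO2 to nine-point 3-fold dilutions (final top 20 μM, 0.2% DMSO), in triplicate. Viability read as ATP by CellTiter-Glo luminescence; IC50 from 4-parameter fit of normalized dose-response curves.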

PRMT5/MEP50 = PRMT5/MEP50 (Homo sapiens (Human), UniProt O14744); test: PRMT5 Biochemical Assay (PRMT5/MEP50 enzyme assay on peptide substrate, 3H-SAM Flashplate)
Sequence of PRMT5/MEP50 (O14744 other isoform, or with tags, fused parts or gaps): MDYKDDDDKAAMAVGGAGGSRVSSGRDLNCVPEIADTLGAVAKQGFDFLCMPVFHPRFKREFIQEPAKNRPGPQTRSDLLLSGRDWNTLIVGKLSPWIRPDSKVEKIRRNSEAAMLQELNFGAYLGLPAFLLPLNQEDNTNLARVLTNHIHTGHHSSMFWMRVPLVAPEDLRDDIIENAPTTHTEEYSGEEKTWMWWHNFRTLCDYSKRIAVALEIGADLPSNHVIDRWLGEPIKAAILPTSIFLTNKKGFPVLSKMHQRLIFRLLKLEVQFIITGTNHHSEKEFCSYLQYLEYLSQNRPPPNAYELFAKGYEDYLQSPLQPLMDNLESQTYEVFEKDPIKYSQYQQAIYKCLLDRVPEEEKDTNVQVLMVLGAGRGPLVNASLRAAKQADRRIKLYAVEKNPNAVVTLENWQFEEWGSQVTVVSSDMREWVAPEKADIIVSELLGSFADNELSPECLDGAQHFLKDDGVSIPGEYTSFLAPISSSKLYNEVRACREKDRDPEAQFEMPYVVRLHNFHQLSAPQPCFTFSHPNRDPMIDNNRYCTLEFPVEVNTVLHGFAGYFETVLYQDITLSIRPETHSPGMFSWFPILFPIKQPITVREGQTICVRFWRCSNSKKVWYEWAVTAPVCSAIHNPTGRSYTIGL
Sequence of PRMT5/MEP50 (Q9BQA1 other isoform, or with tags, fused parts or gaps partner): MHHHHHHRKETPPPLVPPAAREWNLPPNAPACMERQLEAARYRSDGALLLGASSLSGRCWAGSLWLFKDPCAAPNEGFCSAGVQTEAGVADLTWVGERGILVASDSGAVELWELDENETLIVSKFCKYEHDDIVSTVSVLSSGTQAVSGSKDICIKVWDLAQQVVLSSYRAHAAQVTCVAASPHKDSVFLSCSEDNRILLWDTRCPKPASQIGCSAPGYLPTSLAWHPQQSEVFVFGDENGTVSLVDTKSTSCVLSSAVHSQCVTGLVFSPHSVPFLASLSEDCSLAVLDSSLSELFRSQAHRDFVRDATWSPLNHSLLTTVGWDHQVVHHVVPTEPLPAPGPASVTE
Source text: S-adenosylmethionine (SAM), S-adenosylhomocysteine (SAH), bicine, KCl, Tween20, dimethylsulfoxide (DMSO), bovine skin gelatin (BSG), and Tris(2-carboxyethyl)phosphine hydrochloride solution (TCEP) were purchased from Sigma-Aldrich at the highest level of purity possible. ^3H-SAM was purchase from American Radiolabeled Chemicals with a specific activity of 80 Ci/mmol. 384-well streptavidin Flashplates were purchased from PerkinElmer.
Peptide representative of human histone H4 residues 1-15 was synthesized with a C-terminal linker-affinity tag motif and a C-terminal amide cap by 21st Century Biochemicals.
The amplified genes were sublconed into pENTR/D/TEV (Life Technologies) and subsequently transferred by Gateway™ attL×attR recombination to pDEST8 baculovirus expression vector (Life Technologies).
Protein over-expression was accomplished by infecting exponentially growing Spodoptera frugiperda (SF9) cell culture at 1.2×10^6 cell/ml with a 5000 fold dilution of BIIC stock. Infections were carried out at 27° C. for 72 hours, harvested by centrifugation, and stored at −80° C. for purification.
Flag-PRMT5/6His-MeP50 was eluted with 300 mM Imidazole in the same buffer.
General Procedure for PRMT5/MEP50 Enzyme Assays on Peptide Substrates.
The assays were all performed in a buffer consisting of 20 mM Bicine (pH=7.6), 1 mM TCEP, 0.005% BSG, and 0.002% Tween20, prepared on the day of use. […] DMSO (1 ul) was added to Columns 11, 12, 23, 24, rows A-H for the maximum signal control and 1 ul of SAH, a known product and inhibitor of PRMT5/MEP50, was added to columns 11, 12, 23, 24, rows I-P for the minimum signal control. A cocktail (40 ul) containing the PRMT5/MEP50 enzyme and the peptide was added by Multidrop Combi (Thermo-Fisher). The compounds were allowed to incubate with PRMT5/MEP50 for 30 min at 25 degrees Celsius, then a cocktail (10 ul) containing ^3H-SAM was added to initiate the reaction (final volume=51 ul). […] The assays were stopped by the addition of non-radioactive SAM (10 ul) to a final concentration of 600 uM, which dilutes the ^3H-SAM to a level where its incorporation into the peptide substrate is no longer detectable. 50 ul of the reaction in the 384-well polypropylene plate was then transferred to a 384-well Flashplate and the biotinylated peptides were allowed to bind to the streptavidin surface for at least 1 hour before being washed three times with 0.1% Tween20 in a Biotek ELx405 plate washer. The plates were then read in a PerkinElmer TopCount plate reader to measure the quantity of ^3H-labeled peptide bound to the Flashplate surface, measured as disintegrations per minute (dpm) or alternatively, referred to as counts per minute (cpm).
[formula] [formula] Where dpm=disintegrations per minute, cmpd=signal in assay well, and min and max are the respective minimum and maximum signal controls.
[formula] [formula] Where top and bottom are the normally allowed to float, but may be fixed at 100 or 0 respectively in a 3-parameter fit. The Hill Coefficient normally allowed to float but may also be fixed at 1 in a 3-parameter fit. Y is the % inhibition and X is the compound concentration.

[1] = system: symmetric di-methyl arginine in Z-138 cells; test: Z-138 Methylation Assay (In Cell Western for symmetric di-methyl arginine and DNA content); format: cell-based; conditions: Homo sapiens, read-out: ICW EC50
Outline: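 Z-138 cells (50,000 cells/mL) treated with compound 96 h at 37 °C, then fixed and stained for symmetric di-methyl arginine (800 nm) with DRAQ5 DNA counterstain (700 nm) on Licor Odyssey.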

SMILES | EC50 (Z-138 cell line) | IC50 (PRMT5/MEP50) | EC50 [1] | EC50 (Z-138 cell line; Cell Titer Glo) | IC50 (PRMT5/MEP50; PRMT5 biochemical assay) | EC50 ([1]; In Cell Western methylation)
O=C(NCC(O)CN1CCc2ccccc2C1)c1ccccc1-c1ccccn1 (stereo not shown) [Compound 12, N-(3-(3,4-dihydroisoquinolin-2(1H)-yl)-2-hydroxypropyl)-2-(pyridin-2-yl)benzamide] | > 20 µM | 101 to 1000 nM | 1000 to 10000 nM | – | – | –
O=C(NCC(O)CN1CCc2ccccc2C1)c1ccccn1 (stereo not shown) [Compound 17, N-(3-(3,4-dihydroisoquinolin-2(1H)-yl)-2-hydroxypropyl)picolinamide] | > 20 µM | 101 to 1000 nM | 101 to 1000 nM | – | – | –
O=C(NCC(O)CN1CCc2ccccc2C1)c1cccnc1 (stereo not shown) [Compound 18] | 10 to 50 µM | 101 to 1000 nM | 101 to 1000 nM | – | – | –
NS(=O)(=O)c1ccc(C(=O)NCC(O)CN2CCc3ccccc3C2)cc1 (stereo not shown) [Compound 21, N-(3-(3,4-dihydroisoquinolin-2(1H)-yl)-2-hydroxypropyl)-4-sulfamoylbenzamide] | > 20 µM | 101 to 1000 nM | 101 to 1000 nM | – | – | –
NC(=O)c1ccc(C(=O)NCC(O)CN2CCc3ccccc3C2)cc1 (stereo not shown) [Compound 22] | > 20 µM | 101 to 1000 nM | 101 to 1000 nM | – | – | –
CC(=O)Nc1ccc(C(=O)NCC(O)CN2CCc3ccccc3C2)cc1 (stereo not shown) [Compound 23, 4-acetamido-N-(3-(3,4-dihydroisoquinolin-2(1H)-yl)-2-hydroxypropyl)benzamide] | > 20 µM | 101 to 1000 nM | 101 to 1000 nM | – | – | –
NC(=O)c1cccc(C(=O)NCC(O)CN2CCc3ccccc3C2)c1 (stereo not shown) [Compound 25] | > 20 µM | 101 to 1000 nM | 1000 to 10000 nM | – | – | –
CC(=O)Nc1cccc(C(=O)NCC(O)CN2CCc3ccccc3C2)c1 (stereo not shown) [Compound 26] | 10 to 50 µM | 101 to 1000 nM | 101 to 1000 nM | – | – | –
CS(=O)(=O)Nc1ccc(C(=O)NCC(O)CN2CCc3ccccc3C2)cc1 (stereo not shown) [Compound 31] | 10 to 50 µM | 101 to 1000 nM | 101 to 1000 nM | – | – | –
NS(=O)(=O)c1cccc(C(=O)NCC(O)CN2CCc3ccccc3C2)c1 (stereo not shown) [Compound 32] | > 20 µM | 101 to 1000 nM | 101 to 1000 nM | – | – | –
CNCCOc1cccc(C(=O)NCC(O)CN2CCc3ccccc3C2)c1 (stereo not shown) [Compound 39] | > 20 µM | 101 to 1000 nM | 1000 to 10000 nM | – | – | –
O=C(NCC(O)CN1CCc2ccccc2C1)c1cccc(C2CCCN2)c1 (stereo not shown) [Compound 42, N-(3-(3,4-dihydroisoquinolin-2(1H)-yl)-2-hydroxypropyl)-3-(pyrrolidin-2-yl)benzamide] | > 20 µM | 101 to 1000 nM | 1000 to 10000 nM | – | – | –
CN1CCC(Nc2cccc(C(=O)NCC(O)CN3CCc4ccccc4C3)c2)C1 (stereo not shown) [Compound 120] | 1 to 10 µM | < 100 nM | 101 to 1000 nM | – | – | –
CN1CCC(Nc2cc(C(=O)NC[C@H](O)CN3CCc4ccccc4C3)ncn2)CC1 [Compound 206] | 1 to 10 µM | < 100 nM | 101 to 1000 nM | – | – | –
O=C(NC[C@H](O)CN1CCc2ccccc2C1)c1cncc(OC2CCN(CC(F)(F)F)CC2)c1 [Compound 289] | 0.101 to 1 µM | < 100 nM | < 100 nM | – | – | –
O=C(NC[C@H](O)CN1CCc2ccccc2C1)c1cccc2ccccc12 [Compound 295] | 1 to 10 µM | < 100 nM | < 100 nM | – | – | –
O=C(NC[C@H](O)CN1CCc2ccccc2C1)c1cncc(NC2CCN(CC(F)(F)F)C2)c1 (stereo partly shown) [Compound 303] | 1 to 10 µM | 101 to 1000 nM | 101 to 1000 nM | – | – | –
CC(=O)N1CCC(Oc2cncc(C(=O)NC[C@H](O)CN3CCc4ccccc4C3)c2)CC1 [Compound 304] | 1 to 10 µM | < 100 nM | < 100 nM | – | – | –
O=C(NC[C@H](O)CN1CCc2ccccc2C1)c1ccc2[nH]nnc2c1 [Compound 305] | 0.101 to 1 µM | < 100 nM | < 100 nM | – | – | –
Cc1cnc(OC2CCOCC2)cc1C(=O)NC[C@H](O)CN1CCc2ccccc2C1 [Compound 309] | 1 to 10 µM | < 100 nM | < 100 nM | – | – | –
Cc1ncc(NC2CCNC2)cc1C(=O)NC[C@H](O)CN1CCc2ccccc2C1 (stereo partly shown) [Compound 310] | 0.101 to 1 µM | < 100 nM | < 100 nM | – | – | –

SMILES | EC50 (Z-138 cell line) | IC50 (PRMT5/MEP50) | EC50 [1] | EC50 (Z-138 cell line; Cell Titer Glo) | IC50 (PRMT5/MEP50; PRMT5 biochemical assay) | EC50 ([1]; In Cell Western methylation)
CN(C[C@H](O)CN1CCc2ccccc2C1)C(=O)c1cc(N(C)C2CCOCC2)ncn1 [Compound 313] | 1 to 10 µM | < 100 nM | < 100 nM | – | – | –
CN(C)C(=O)CNCCOc1cccc(C(=O)NCC(O)CN2CCc3ccccc3C2)c1 (stereo not shown) [Compound 340] | > 20 µM | 101 to 1000 nM | 101 to 1000 nM | – | – | –
Cc1cnc(NC2CNC2)cc1C(=O)NC[C@H](O)CN1CCc2ccccc2C1 [Compound 341] | > 20 µM | < 100 nM | > 1000 nM | – | – | –
Cn1ccc(Nc2cc(C(=O)NC[C@H](O)CN3CCc4ccccc4C3)ccn2)n1 [Compound 342] | 1 to 10 µM | < 100 nM | < 100 nM | – | – | –
O=C(NC[C@H](O)CN1CCc2ccccc2C1)c1ccnc(Nc2cccnc2)c1 [Compound 343] | < 0.1 µM | < 100 nM | < 100 nM | – | – | –
O=C(NC[C@H](O)CN1CCc2ccccc2C1)c1ccc2cccnc2c1O [Compound 344] | 1 to 10 µM | 101 to 1000 nM | > 1000 nM | – | – | –
CN(C)CCCOc1ccc(C(=O)NC[C@H](O)CN2CCc3ccccc3C2)cc1 [Compound 345] | 0.101 to 1 µM | < 100 nM | < 100 nM | – | – | –
CCN1CCC(Oc2ccc(C(=O)NC[C@H](O)CN3CCc4ccccc4C3)cc2)CC1 [Compound 346] | 0.101 to 1 µM | < 100 nM | < 100 nM | – | – | –
O=C(NC[C@H](O)CN1CCc2ccccc2C1)c1ccc(OC2CCCNC2)cc1 (stereo partly shown) [Compound 347] | 0.101 to 1 µM | < 100 nM | < 100 nM | – | – | –
Cc1cc(C(=O)NC[C@H](O)CN2CCc3ccccc3C2)cc(NC2CCC2)n1 [Compound 348] | 0.101 to 1 µM | < 100 nM | < 100 nM | – | – | –
O=C(NC[C@H](O)CN1CCc2ccccc2C1)c1cc(NC2CCC2)nc(N2CCOCC2)c1 [Compound 349] | < 0.1 µM | < 100 nM | < 100 nM | – | – | –
O=C(NC[C@H](O)CN1CCc2ccccc2C1)c1ccnc(OC2CCC2)c1 [Compound 350] | 0.101 to 1 µM | < 100 nM | < 100 nM | – | – | –
CCC(=O)N1CCC(Nc2cc(C(=O)NC[C@H](O)CN3CCc4ccccc4C3)ccn2)CC1 [Compound 454] | – | – | – | < 0.1 µM | < 100 nM | –
O=C(NC[C@H](O)CN1CCc2ccccc2C1)c1ccnc(NC2CCN(C(=O)C3CCC3)CC2)c1 [Compound 455] | – | – | – | < 0.1 µM | < 100 nM | –
CN(C)C(=O)CN1CC(Nc2cc(C(=O)NC[C@H](O)CN3CCc4ccccc4C3)ncn2)C1 [Compound 623] | – | – | – | 10 to 50 µM | < 100 nM | –
NC1=NC(C(=O)NC[C@H](O)CN2CCc3ccccc3C2)=CC2=NC(CO)CN12 (stereo partly shown) [Compound 625] | – | – | – | > 5 µM | 101 to 1000 nM | –
CC(=O)N1CCC(Nc2cc(C(=O)NC[C@H](O)CN3Cc4ccccc4C(O)C3)ccn2)CC1 (stereo partly shown) [Compound 680] | – | – | – | – | > 10000 nM | > 1000 nM
CC(=O)N1CCC(Nc2cc(C(=O)NC[C@H](O)CN3Cc4ccccc4C(C)C3)ccn2)CC1 (stereo partly shown) [Compound 695] | – | – | – | – | > 10000 nM | > 1000 nM
CC(=O)N1CCC(Nc2cc(C(=O)NC[C@H](O)CN3Cc4ccccc4CC3C)ccn2)CC1 (stereo partly shown) [Compound 696] | – | – | – | – | 1000 to 10000 nM | 101 to 1000 nM
O=C(NCC(F)CN1CCc2ccccc2C1)c1cc(NC2COC2)ncn1 (stereo not shown) [Compound 697] | – | – | – | – | 1000 to 10000 nM | > 1000 nM
